# Measurements reported in paper PMC4859512, “Polyamino-Isoprenic Derivatives Block Intrinsic Resistance of P. aeruginosa to Doxycycline and Chloramphenicol In Vitro” (PLoS ONE, 2016).
# Where “and” joins values, the source holds several entries; their conditions need not be identical. Identical values can stand only once.
# Experiments:
# [1] = tested on: cytoplasmic membrane of PA01; assay: Inner membrane depolarization assay (Disc3(5) fluorescence); format: cell-based, Pseudomonas aeruginosa; details: PA01, Disc3(5) fluorescence
# Description: Inner membrane depolarization assay
# Cells were grown to a mid-
# logarithmic phase, recovered by centrifugation (3000 X g for 20 min) and washed in 5 mM 4-(2-
# hydroxyethyl)piperazine-1-ethanesulfonic acid (HEPES, pH 7.0) containing 10 mM EDTA. After 5
# min incubation at room temperature, cells were recovered by centrifugation (3000 X g for 20
# min), and resuspended in 5 mM HEPES (pH 7.0) containing 50 mM glucose, OD600 nm was
# adjusted to 0.29. Five µl of a 160 µM suspension of [3,3’-Dipropylthiadicarbocyanine iodide]
# (Disc3(5)) were added after 90 sec to 100 µl of a bacterial suspension, in a 96-well Greiner black
# microplate, to reach 8 µM final concentration. After a 16.5 min incubation period allowing
# incorporation of the dye into the polarized membrane, 10 µl of the appropriate compound
# concentration were added. Fluorescence was monitored every 30 sec on an Infinite M200
# microplate reader (Tecan; excitation wavelength 622nm and emission wavelength 690nm).
# Assays were performed in two independent experiments and statistically significance was
# assessed using a student’s t-test. A p-value ≤ 0.05 was considered significant.
# (1 picture or pasted object on this page, not shown here)
# P. aeruginosa PA01 = assay: Checkerboard assay with doxycycline; format: cell-based, Pseudomonas aeruginosa; details: PA01
# Description: Serial two-fold dilutions of antimicrobial agents were mixed together in a microtiter plate. The range of concentration of each drug was twice the MIC, down to the eleventh serial two-fold dilutions below this amount. Doxycycline was serially diluted along the X-axis, and the polyamino-isoprenic compound or PAßN was diluted along the Y-axis as indicated. Each well was inoculated with a bacterial inoculum of 5 x 10^5 CFU/ml, and the plates were incubated at 37°C for 18 h under aerobic conditions. Each plate also contained a row and a column in which a serial dilution of polyamino-isoprenic compound or doxycycline, respectively, was present alone to determine the MIC. The FIC index was calculated as follows: FIC index = FIC A + FIC B, where FIC A is the MIC of drug A in the combination/MIC of drug A alone and FIC B is the MIC of drug B in the combination/MIC of drug B alone. The combination was considered synergistic when the FIC index is ≤0.5, and antagonistic when the FIC index is > 4 [26].
# P. aeruginosa PA01 (wt) = assay: Antibiotic susceptibility testing (broth micro-dilution MIC), strain PA01; format: cell-based, Pseudomonas aeruginosa
# [2] = tested on: P. aeruginosa CMZ091 (Mex XY overproducer); assay: Antibiotic susceptibility testing (broth micro-dilution MIC), strain CMZ091; format: cell-based, Pseudomonas aeruginosa
# P. aeruginosa strains = assay: Synergy assays of compound 3 with representative anti-pseudomonal agents (summary in words, all strains); format: cell-based, Pseudomonas aeruginosa
# Description: We concluded that compound 3 was the best compound and suitable for a more detailed study. The same experiment was performed using chloramphenicol (4 mg/L) in combination with 3 (10 μM final concentration). Amongst the 20 clinical isolates, the growth of 15 (75%) was impaired, while 5 (25%) were resistant (data not shown). These experiments were performed to study the effect of our compounds on the natural resistance of P. aeruginosa. In addition, we were wondering if compound 3 could also increase susceptibility to other antibiotic families including ß-Lactams, fluoroquinolones and aminoglycosides, that are representative of the main classes of anti-pseudomonal agents. Experiments were performed with the ß-lactams ceftazidime and ticarcillin and ciprofloxacin and amikacin. […]. […] To better characterize compound 3, we first searched for the minimum concentration of compound that allowed killing of bacteria by doxycycline, and PAßN was used as the reference molecule.
# [3] = tested on: P. aeruginosa PA0-7H (Mex EF overproducer); assay: Antibiotic susceptibility testing (broth micro-dilution MIC), strain PA0-7H; format: cell-based, Pseudomonas aeruginosa
# [4] = tested on: P. aeruginosa FB1 (Mex B deleted); assay: Antibiotic susceptibility testing (broth micro-dilution MIC), strain FB1; format: cell-based; details: Pseudomonas aeruginosa, read-out: Minimal Inhibitory Concentration
# Description: Experiments were performed on the BAC-SCREEN platform of the UMR-MD1, with a Freedom EVO 150 liquid handling system (Tecan, Lyon, France).
# [5] = tested on: outer membrane of P. aeruginosa PA01; assay: Outer membrane permeation assay (nitrocefin hydrolysis)
# Description: An overnight culture of PA01 was diluted 100-fold into 10 ml MHII broth containing 0.01 μg/ml of imipenem to induce a higher level of β-lactamases. […] Absorbance at 490 nm was monitored by spectrophotometry using an Infinite M200 microplate reader (Tecan) over 60 min. Experiments were performed in triplicate.
# [6] = doxycycline MIC in the combination 0.0625 µg/ml
# [7] = doxycycline MIC in the combination 0.125 µg/ml
# [8] = doxycycline MIC in the combination 0.25 µg/ml
# [9] = doxycycline MIC in the combination 0.5 µg/ml
# [10] = doxycycline MIC in the combination 1 µg/ml
# [11] = doxycycline MIC in the combination 2 µg/ml
# [12] = doxycycline MIC in the combination 4 µg/ml
# [13] = doxycycline MIC in the combination 8 µg/ml
# [14] = doxycycline MIC in the combination 16 µg/ml
# [15] = Pseudomonas aeruginosa, read-out: Minimal Inhibitory Concentration
compound,measurement,setting,value
CC(C)=CCCC(C)=CCCC(C)=CCNCCCNCCCCNCCCN [Compound 3],cytoplasmic membrane depolarization,[1],dissipated the proton motive force
same,Concentration of compound associated,P. aeruginosa PA01; [6],93.75 µM
same,FIC index,P. aeruginosa PA01; [6],1
same,Concentration of compound associated,P. aeruginosa PA01; [7],46.88 µM
same,Effect,P. aeruginosa PA01; [7],Synergistic (synergistic when the FIC index is ≤0.5)
same,FIC index,P. aeruginosa PA01; [7],0.50
same,Concentration of compound associated,P. aeruginosa PA01; [8],23.44 µM
same,Effect,P. aeruginosa PA01; [8],Synergistic (synergistic when the FIC index is ≤0.5)
same,FIC index,P. aeruginosa PA01; [8],0.26
same,Concentration of compound associated,P. aeruginosa PA01; [9],11.72 µM
same,Effect,P. aeruginosa PA01; [9],Synergistic (synergistic when the FIC index is ≤0.5)
same,FIC index,P. aeruginosa PA01; [9],0.14
same,Concentration of compound associated,P. aeruginosa PA01; [10],5.86 µM
same,Effect,P. aeruginosa PA01; [10],Synergistic (synergistic when the FIC index is ≤0.5)
same,FIC index,P. aeruginosa PA01; [10],0.09
same,Concentration of compound associated,P. aeruginosa PA01; [11],2.93 µM
same,Effect,P. aeruginosa PA01; [11],Synergistic (synergistic when the FIC index is ≤0.5)
same,FIC index,P. aeruginosa PA01; [11],0.09
same,Concentration of compound associated,P. aeruginosa PA01; [12],2.93 µM
same,Effect,P. aeruginosa PA01; [12],Synergistic (synergistic when the FIC index is ≤0.5)
same,FIC index,P. aeruginosa PA01; [12],0.16
same,Concentration of compound associated,P. aeruginosa PA01; [13],0.73 µM
same,Effect,P. aeruginosa PA01; [13],Synergistic (synergistic when the FIC index is ≤0.5)
same,FIC index,P. aeruginosa PA01; [13],0.26
same,Concentration of compound associated,P. aeruginosa PA01; [14],0.18 µM
same,Effect,P. aeruginosa PA01; [14],Synergistic (synergistic when the FIC index is ≤0.5)
same,FIC index,P. aeruginosa PA01; [14],0.50
same,FIC index,P. aeruginosa PA01; combination with doxycycline,0.09
same,MIC of Amikacin in the presence of the compound,"P. aeruginosa PA01 (wt); PA01, compound 10µM",64 µg/mL
same,MIC of Ceftazidime in the presence of the compound,"P. aeruginosa PA01 (wt); PA01, compound 10µM",2 µg/mL
same,MIC of Ciprofloxacin in the presence of the compound,"P. aeruginosa PA01 (wt); PA01, compound 10µM",0.125 µg/mL
same,MIC of Ticarcillin in the presence of the compound,"P. aeruginosa PA01 (wt); PA01, compound 10µM",16 µg/mL
same,MIC,P. aeruginosa PA01 (wt); [15],25 µg/mL and 62.5 µM
same,MIC of Amikacin in the presence of the compound,"[2]; CMZ091, compound 10µM",> 64 µg/mL
same,MIC of Ceftazidime in the presence of the compound,"[2]; CMZ091, compound 10µM",2 µg/mL
same,MIC of Ciprofloxacin in the presence of the compound,"[2]; CMZ091, compound 10µM",0.25 µg/mL
same,MIC of Ticarcillin in the presence of the compound,"[2]; CMZ091, compound 10µM",8 µg/mL
same,MIC,[2]; [15],25 µg/mL and 62.5 µM
same,synergy with ciprofloxacin,P. aeruginosa strains; all strains with the exception of PA0-7H,No synergistic effect
same,effect of combination with ticarcillin,P. aeruginosa strains; all the strains,slight effect
same,effect on the MIC of amikacin,P. aeruginosa strains; every strains,surprising increase of the MIC
same,decrease of MIC of ciprofloxacin,"[3]; PA0-7H (overproduces MexEF), compound 10 µM",4 times
same,MIC of Amikacin in the presence of the compound,"[3]; PA0-7H, compound 10µM",64 µg/mL
same,MIC of Ceftazidime in the presence of the compound,"[3]; PA0-7H, compound 10µM",1 µg/mL
same,MIC of Ciprofloxacin in the presence of the compound,"[3]; PA0-7H, compound 10µM",1 µg/mL
same,MIC of Ticarcillin in the presence of the compound,"[3]; PA0-7H, compound 10µM",4 µg/mL
same,MIC,[3]; [15],25 µg/mL and 62.5 µM
same,MIC,[4],25 µg/mL and 62.5 µM
same,outer membrane permeation efficacy,"[5]; compound at 15.6μM, p value ≤ 0.05",significantly identical to 31.25μM of PMBN
same,outer membrane permeation activity,"[5]; compound at 31.25μM, relative to 250 μM polymyxin-B",10%
